Source: patent US20230117034A1, “PYRAZOLOTRIAZINES” (Bayer Aktiengesellschaft, priority 2019, published 2023)

Legend:
[1] = molecular target: CDK12/CycK (Homo sapiens, UniProt Q9NYV4); experiment: CDK12/CycK high ATP kinase assay (TR-FRET, 2 mM ATP); assay type: biochemical; conditions: 2 mM ATP (high ATP); median; read-out: CDK12/CyclinK, 2 mM ATP (high ATP), IC50-[mol/l] (median)
In short: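 His-tagged human CDK12/CycK (~0.75 nM) pre-incubated 15 min with compound, then 60 min at 22 °C with 2 mM ATP and 1 µM biotinylated peptide (HEPES pH 7.5, 20 mM MgCl2). EDTA stop; phospho-Ser62 antibody/Eu anti-rabbit and streptavidin-XL665 TR-FRET, 665/620 nm ratio normalised to give IC50.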

[2] = molecular target: T1, CDK9/CycT1 (Homo sapiens, UniProt P50750); experiment: CDK9/CycT1 high ATP kinase assay (TR-FRET, 2 mM ATP); assay type: biochemical; conditions: 2 mM ATP (high ATP); median; read-out: CDK9/CyclinT1, 2 mM ATP (high ATP), IC50 (median)
T1 construct: Recombinant full-length His-tagged human CDK9 and CycT1; purchased Life Technologies PV4131; host or cells: insect cells
T1 sequence (P50750 whole entry): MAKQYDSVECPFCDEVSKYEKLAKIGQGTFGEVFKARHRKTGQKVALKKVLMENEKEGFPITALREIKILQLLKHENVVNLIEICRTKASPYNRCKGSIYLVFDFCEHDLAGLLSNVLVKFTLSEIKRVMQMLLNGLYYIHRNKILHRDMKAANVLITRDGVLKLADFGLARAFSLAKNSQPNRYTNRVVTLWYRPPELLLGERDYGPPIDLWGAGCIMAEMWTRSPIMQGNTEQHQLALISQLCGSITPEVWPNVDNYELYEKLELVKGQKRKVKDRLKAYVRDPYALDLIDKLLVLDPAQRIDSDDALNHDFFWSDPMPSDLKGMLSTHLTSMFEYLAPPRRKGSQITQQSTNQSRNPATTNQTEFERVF
T1 sequence (O60563 whole entry partner): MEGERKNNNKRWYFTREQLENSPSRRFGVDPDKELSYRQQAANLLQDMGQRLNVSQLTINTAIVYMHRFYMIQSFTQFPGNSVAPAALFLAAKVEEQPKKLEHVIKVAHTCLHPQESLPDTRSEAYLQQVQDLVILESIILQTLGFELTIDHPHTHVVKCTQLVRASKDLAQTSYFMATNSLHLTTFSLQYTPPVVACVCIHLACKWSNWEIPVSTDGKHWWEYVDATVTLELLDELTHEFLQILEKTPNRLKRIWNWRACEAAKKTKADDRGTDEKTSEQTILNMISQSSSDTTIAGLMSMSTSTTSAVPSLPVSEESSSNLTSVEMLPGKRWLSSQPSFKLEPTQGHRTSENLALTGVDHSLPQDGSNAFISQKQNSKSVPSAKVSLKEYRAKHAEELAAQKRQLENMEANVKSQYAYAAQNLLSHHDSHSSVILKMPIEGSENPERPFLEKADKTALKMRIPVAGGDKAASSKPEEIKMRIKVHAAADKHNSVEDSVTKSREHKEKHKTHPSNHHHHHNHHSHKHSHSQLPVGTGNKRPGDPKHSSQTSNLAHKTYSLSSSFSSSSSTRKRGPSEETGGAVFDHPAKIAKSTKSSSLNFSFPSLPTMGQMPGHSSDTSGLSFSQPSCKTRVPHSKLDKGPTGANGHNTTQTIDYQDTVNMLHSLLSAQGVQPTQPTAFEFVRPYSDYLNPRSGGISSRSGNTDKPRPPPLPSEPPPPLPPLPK
In short: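 Full-length His-tagged human CDK9/CycT1 (insect cell, ~0.5 μg/mL) preincubated 15 min at 22 °C with compound in Tris pH 8.0, MgCl2, DTT buffer before reaction with biotinylated peptide substrate at high ATP (2 mM).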

Chain of CDK12/CycK (Q9NYV4 with tags, fused parts or gaps): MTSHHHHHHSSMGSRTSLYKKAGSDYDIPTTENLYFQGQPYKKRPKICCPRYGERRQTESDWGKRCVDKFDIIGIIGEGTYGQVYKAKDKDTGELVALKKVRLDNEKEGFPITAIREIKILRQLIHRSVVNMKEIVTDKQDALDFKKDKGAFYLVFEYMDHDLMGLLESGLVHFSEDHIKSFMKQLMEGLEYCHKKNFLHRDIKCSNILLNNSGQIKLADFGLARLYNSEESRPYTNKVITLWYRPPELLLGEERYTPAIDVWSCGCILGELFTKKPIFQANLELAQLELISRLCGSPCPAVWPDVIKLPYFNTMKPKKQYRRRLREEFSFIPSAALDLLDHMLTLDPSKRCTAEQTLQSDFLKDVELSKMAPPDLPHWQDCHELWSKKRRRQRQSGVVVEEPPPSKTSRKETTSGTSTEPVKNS
Chain of CDK12/CycK (O75909 1-300 partner limits assumed): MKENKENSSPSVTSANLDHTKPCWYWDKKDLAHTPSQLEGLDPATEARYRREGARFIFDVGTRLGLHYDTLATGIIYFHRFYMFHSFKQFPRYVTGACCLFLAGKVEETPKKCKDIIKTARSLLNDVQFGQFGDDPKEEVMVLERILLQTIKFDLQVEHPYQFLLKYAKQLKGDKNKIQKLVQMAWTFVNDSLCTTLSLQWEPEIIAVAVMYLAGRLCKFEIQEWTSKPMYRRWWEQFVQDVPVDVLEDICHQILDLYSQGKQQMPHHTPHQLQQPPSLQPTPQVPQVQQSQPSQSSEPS

SMILES | IC50 [1] | IC50 [2]
Fc1cc2nc(CNc3nc(N4C[C@H]5CC[C@@H](C4)N5)nc4c(C5CC5)cnn34)[nH]c2cc1Cl [Example 328, N-[(6-chloro-5-fluoro-1H-benzimidazol-2-yl)methyl]-8-cyclopropyl-2-[(1R,5S)-3,8-diazabicyclo[3.2.1]octan-3-yl]pyrazolo[1,5-a][1,3,5]triazin-4-amine] | 1.66 µM | 15 µM
Brc1cnn2c(NCc3nc4ccccc4[nH]3)nc(N3CCN4CCC3C4)nc12 (stereo not drawn) [Example 350, N-[(1H-benzimidazol-2-yl)methyl]-8-bromo-2-(1,4-diazabicyclo[3.2.1]octan-4-yl)pyrazolo[1,5-a][1,3,5]triazin-4-amine] | 7.8 µM | > 20 µM
Fc1cc2nc(CNc3nc(N4CCOCC4)nc4c(Br)cnn34)[nH]c2cc1F [Example 341, 8-bromo-N-[(5,6-difluoro-1H-benzimidazol-2-yl)methyl]-2-(morpholin-4-yl)pyrazolo[1,5-a][1,3,5]triazin-4-amine] | 2.22 µM | 17.4 µM
CN1CCN(c2nc(NCc3nc4cc(F)c(F)cc4[nH]3)n3ncc(Br)c3n2)CC1 [Example 346, 8-bromo-N-[(5,6-difluoro-1H-benzimidazol-2-yl)methyl]-2-(4-methylpiperazin-1-yl)pyrazolo[1,5-a][1,3,5]triazin-4-amine] | 12.2 µM | > 20 µM
FC(F)(F)c1cnn2c(NCc3nc4cc(Cl)c(Cl)cc4[nH]3)nc(N3CCOCC3)nc12 [Example 332, N-[(5,6-dichloro-1H-benzimidazol-2-yl)methyl]-2-(morpholin-4-yl)-8-(trifluoromethyl)pyrazolo[1,5-a][1,3,5]triazin-4-amine] | 0.19 µM | > 20 µM
Cc1cc2nc(CNc3nc(N4CCOCC4)nc4c(Br)cnn34)[nH]c2cc1C [Example 340, 8-bromo-N-[(5,6-dimethyl-1H-benzimidazol-2-yl)methyl]-2-(morpholin-4-yl)pyrazolo[1,5-a][1,3,5]triazin-4-amine] | 0.618 µM | 12.6 µM
CN(CC(C)(C)O)c1nc(NCc2nc3cc(Cl)c(Cl)cc3[nH]2)n2ncc(Br)c2n1 [Example 331, 1-[(8-bromo-4-{[(5,6-dichloro-1H-benzimidazol-2-yl)methyl]amino}pyrazolo[1,5-a][1,3,5]triazin-2-yl)(methyl)amino]-2-methylpropan-2-ol] | 0.35 µM | 4.9 µM
CN1CCC(Oc2nc(NCc3nc4ccccc4[nH]3)n3ncc(Br)c3n2)CC1 [Example 389, N-[(1H-benzimidazol-2-yl)methyl]-8-bromo-2-[(1-methylpiperidin-4-yl)oxy]pyrazolo[1,5-a][1,3,5]triazin-4-amine] | > 20 µM | > 20 µM
CN1CCN(c2nc(NCc3nc4c(F)c(Cl)ccc4[nH]3)n3ncc(C4CC4)c3n2)CC1 [Example 371, N-[(5-chloro-4-fluoro-1H-benzimidazol-2-yl)methyl]-8-cyclopropyl-2-(4-methylpiperazin-1-yl)pyrazolo[1,5-a][1,3,5]triazin-4-amine] | 5.25 µM | > 20 µM
CN1CCN(c2nc(NCc3nc4c(F)cccc4[nH]3)n3ncc(Cl)c3n2)CC1.O=CO [Example 362, formic acid 8-chloro-N-[(4-fluoro-1H-benzimidazol-2-yl)methyl]-2-(4-methylpiperazin-1-yl)pyrazolo[1,5-a][1,3,5]triazin-4-amine] | 13.1 µM | > 20 µM
Brc1cnn2c(NCc3nc4ccccc4[nH]3)nc(N3C[C@H]4CC[C@@H]3CO4)nc12 (single isomer, unassigned; enantiomer 2) [Example 391, N-[(1H-benzimidazol-2-yl)methyl]-8-bromo-2-{[1R or S-(1R*,4R*)]-2-oxa-5-azabicyclo[2.2.2]octan-5-yl}pyrazolo[1,5-a][1,3,5]triazin-4-amine (Enantiomer 2)] | 6.7 µM | > 20 µM
Fc1cc2nc(CNc3nc(N4CC5CCC(C4)N5)nc4c(Br)cnn34)[nH]c2cc1F [Example 355, 8-bromo-2-(3,8-diazabicyclo[3.2.1]octan-3-yl)-N-[(5,6-difluoro-1H-benzimidazol-2-yl)methyl]pyrazolo[1,5-a][1,3,5]triazin-4-amine] | 4.18 µM | > 20 µM
FC(F)(F)Oc1ccc2[nH]c(CNc3nc(N4C[C@H]5CC[C@@H](C4)N5)nc4c(Br)cnn34)nc2c1 [Example 382, 8-bromo-2-[(1R,5S)-3,8-diazabicyclo[3.2.1]octan-3-yl]-N-{[5-(trifluoromethoxy)-1H-benzimidazol-2-yl]methyl}pyrazolo[1,5-a][1,3,5]triazin-4-amine] | 0.823 µM | > 20 µM
Brc1cnn2c(NCc3nc4ccccc4[nH]3)nc(N3C[C@H]4CC[C@@H]3CN4)nc12 (single isomer, unassigned) [Example 335, N-[(1H-benzimidazol-2-yl)methyl]-8-bromo-2-{[1R or S-(1R*,4R*)]-2,5-diazabicyclo[2.2.2]octan-2-yl}pyrazolo[1,5-a][1,3,5]triazin-4-amine] | 6.65 µM | > 20 µM
CC[C@@H](CO)Nc1nc(NCc2nc3ccccc3[nH]2)n2ncc(Br)c2n1 [Example 367, (2S)-2-[(4-{[(1H-benzimidazol-2-yl)methyl]amino}-8-bromopyrazolo[1,5-a][1,3,5]triazin-2-yl)amino]butan-1-ol] | 2.93 µM | 17.6 µM
Cc1ccnc2[nH]c(CNc3nc(N4CCN(C)CC4)nc4c(C(C)C)cnn34)nc12 [Example 32, N-[(7-methyl-3H-imidazo[4,5-b]pyridin-2-yl)methyl]-2-(4-methylpiperazin-1-yl)-8-(propan-2-yl)pyrazolo[1,5-a][1,3,5]triazin-4-amine] | 18.5 µM | > 20 µM
CN(c1nc(NCc2nc3ccccc3[nH]2)n2ncc(Br)c2n1)[C@H]1C[C@H](O)C1 [Example 365, trans-3-[(4-{[(1H-benzimidazol-2-yl)methyl]amino}-8-bromopyrazolo[1,5-a][1,3,5]triazin-2-yl)(methyl)amino]cyclobutan-1-ol] | 5.85 µM | > 20 µM
CC[C@H](COC)Nc1nc(NCc2nc3ccccc3[nH]2)n2ncc(Br)c2n1 [Example 369, N4-[(1H-benzimidazol-2-yl)methyl]-8-bromo-N2-[(2R)-1-methoxybutan-2-yl]pyrazolo[1,5-a][1,3,5]triazine-2,4-diamine] | > 20 µM | > 20 µM
CN(CC(C)(C)O)c1nc(NCc2nc3c(F)c(Cl)ccc3[nH]2)n2ncc(C3CC3)c2n1 [Example 387, 1-[(4-{[(5-chloro-4-fluoro-1H-benzimidazol-2-yl)methyl]amino}-8-cyclopropylpyrazolo[1,5-a][1,3,5]triazin-2-yl)(methyl)amino]-2-methylpropan-2-ol] | 0.233 µM | 5.93 µM
CC[C@H](CO)Nc1nc(NCc2nc3ccccc3[nH]2)n2ncc(Br)c2n1 [Example 368, (2R)-2-[(4-{[(1H-benzimidazol-2-yl)methyl]amino}-8-bromopyrazolo[1,5-a][1,3,5]triazin-2-yl)amino]butan-1-ol] | 4.84 µM | > 20 µM
Fc1cccc2[nH]c(CNc3nc(N4CC5CCC(C4)N5)nc4c(Cl)cnn34)nc12 [Example 363, 8-chloro-2-(3,8-diazabicyclo[3.2.1]octan-3-yl)-N-[(4-fluoro-1H-benzimidazol-2-yl)methyl]pyrazolo[1,5-a][1,3,5]triazin-4-amine] | 3.31 µM | > 20 µM
CN(CC(C)(C)O)c1nc(NCc2nc3c(F)c(F)ccc3[nH]2)n2ncc(Cl)c2n1 [Example 359, 1-[(8-chloro-4-{[(4,5-difluoro-1H-benzimidazol-2-yl)methyl]amino}pyrazolo[1,5-a][1,3,5]triazin-2-yl)(methyl)amino]-2-methylpropan-2-ol] | 2.09 µM | 7.13 µM
Cc1cc2nc(CNc3nc(N4CCN(C)CC4)nc4c(Br)cnn34)[nH]c2cc1C [Example 342, 8-bromo-N-[(5,6-dimethyl-1H-benzimidazol-2-yl)methyl]-2-(4-methylpiperazin-1-yl)pyrazolo[1,5-a][1,3,5]triazin-4-amine] | 6.65 µM | > 20 µM
Fc1c(Cl)ccc2[nH]c(CNc3nc(N4CCOCC4)nc4c(C5CC5)cnn34)nc12 [Example 370, N-[(5-chloro-4-fluoro-1H-benzimidazol-2-yl)methyl]-8-cyclopropyl-2-(morpholin-4-yl)pyrazolo[1,5-a][1,3,5]triazin-4-amine] | 0.169 µM | > 20 µM
Cc1ccnc2[nH]c(CNc3nc(N4CCOCC4)nc4c(C(C)C)cnn34)nc12 [Example 28, N-[(7-methyl-3H-imidazo[4,5-b]pyridin-2-yl)methyl]-2-(morpholin-4-yl)-8-(propan-2-yl)pyrazolo[1,5-a][1,3,5]triazin-4-amine] | 3.32 µM | > 20 µM
Cc1cc2nc(CNc3nc(N4CC5CCC(C4)N5)nc4c(C5CC5)cnn34)[nH]c2cc1C [Example 326, 8-cyclopropyl-2-(3,8-diazabicyclo[3.2.1]octan-3-yl)-N-[(5,6-dimethyl-1H-benzimidazol-2-yl)methyl]pyrazolo[1,5-a][1,5]triazin-4-amine] | 0.942 µM | 17 µM
Brc1cnn2c(NCc3nc4ccccc4[nH]3)nc(N3CC4CCC3CO4)nc12 (stereo not drawn) [Example 352, N-[(1H-benzimidazol-2-yl)methyl]-8-bromo-2-(2-oxa-5-azabicyclo[2.2.2]octan-5-yl)pyrazolo[1,5-a][1,3,5]triazin-4-amine] | 5.25 µM | 16.8 µM
